# In paper PMC10941186, “Real-Time Biosynthetic Reaction Monitoring Informs the Mechanism of Action of Antibiotics” (Journal of the American Chemical Society, 2024):
# Columns and labels:
# Assay type in all cases: biochemical
# [1] = molecular target: T1, UppP (Escherichia coli, UniProt P60932); assay: native mass spectrometry, real-time reaction monitoring
# T1 construct: expressed and purified from E. coli membranes, LDAO micelles, delipidated for activity
# T1 sequence (P60932 1-273): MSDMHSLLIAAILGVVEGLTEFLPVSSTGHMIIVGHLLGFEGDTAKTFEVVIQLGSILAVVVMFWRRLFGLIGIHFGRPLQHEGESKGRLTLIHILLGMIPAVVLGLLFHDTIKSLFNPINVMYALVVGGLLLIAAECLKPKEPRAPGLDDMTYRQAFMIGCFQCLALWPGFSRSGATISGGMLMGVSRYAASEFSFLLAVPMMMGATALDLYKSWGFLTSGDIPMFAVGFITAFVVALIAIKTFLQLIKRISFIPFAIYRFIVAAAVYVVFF
# [2] = molecular target: T2, YbjG (Escherichia coli, UniProt P75806); assay: thin-layer chromatography phosphatase assay; details: unaffected by EDTA or CaCl2
# T2 construct: construct details only in supplement
# T2 sequence (P75806 1-198): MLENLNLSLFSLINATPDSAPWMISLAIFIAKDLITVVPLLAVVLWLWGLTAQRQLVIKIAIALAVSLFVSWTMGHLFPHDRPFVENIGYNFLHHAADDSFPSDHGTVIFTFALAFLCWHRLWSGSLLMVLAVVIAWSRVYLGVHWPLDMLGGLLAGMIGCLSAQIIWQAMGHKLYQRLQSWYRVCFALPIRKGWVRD
# [3] = molecular target: T3, PgpB^Ec (Escherichia coli, UniProt P0A924); assay: native mass spectrometry, real-time reaction monitoring
# T3 construct: expressed and purified from E. coli membranes, LDAO micelles; monomer; tag details not given (PgpB-his plasmid used in cells)
# T3 sequence (P0A924 2-254): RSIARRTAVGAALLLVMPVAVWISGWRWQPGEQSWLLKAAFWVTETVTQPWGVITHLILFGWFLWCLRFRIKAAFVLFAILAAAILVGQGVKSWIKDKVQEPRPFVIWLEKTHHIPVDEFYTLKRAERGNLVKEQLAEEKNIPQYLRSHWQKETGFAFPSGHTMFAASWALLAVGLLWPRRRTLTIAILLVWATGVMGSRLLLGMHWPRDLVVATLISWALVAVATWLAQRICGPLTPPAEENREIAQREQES
# [4] = molecular target: T4, PgpB^Bs (Bacillus subtilis, UniProt O34349); assay: as above
# T4 construct: expressed in E. coli, purified, LDAO micelles; monomer; tag details not given
# T4 sequence (O34349 1-203): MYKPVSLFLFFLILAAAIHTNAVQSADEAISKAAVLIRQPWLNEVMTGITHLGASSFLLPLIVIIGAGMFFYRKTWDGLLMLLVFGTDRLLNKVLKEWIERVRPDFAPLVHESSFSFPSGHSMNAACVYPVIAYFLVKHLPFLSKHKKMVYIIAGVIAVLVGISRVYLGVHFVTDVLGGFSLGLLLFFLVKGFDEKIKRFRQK
# [5] = within 1 min, only enzyme-product complexes seen
compound,measurement,setting,value
CC(C)=CCC/C(C)=C/CC/C(C)=C/COP(=O)(O)OP(=O)(O)O [C15-PP],"native mass spectrometry, real-time reaction monitoring","[1]; 3.5 uM delipidated protein, 50 uM C15-PP",peaks corresponding to ligand-free UppP and multiple enzyme–substrate complexes (UppP)(C15-PP)n
CC(C)=CCC/C(C)=C/CC/C(C)=C/CC/C(C)=C/CC/C(C)=C/CC/C(C)=C/CC/C(C)=C/CC/C(C)=C/CC/C(C)=C/CC/C(C)=C/CC/C(C)=C/COP(=O)(O)OP(=O)(O)O [C55-PP],thin-layer chromatography phosphatase assay,[2],the activity of YbjG against C55-PP is unaffected by EDTA or CaCl2
same,"native mass spectrometry, real-time reaction monitoring","[3]; 3.5 uM protein, 10 uM C55-PP, slowly processed",we observe intense binding of C55-PP molecules to the enzyme
same,"native mass spectrometry, real-time reaction monitoring",[4]; [5],We next examined the activity of PgpB of B. subtilis (PgpB^Bs) toward DGPP and C55-PP
CC(C)=CCC/C(C)=C/CC/C(C)=C/CC/C(C)=C\CC/C(C)=C\CC/C(C)=C\CC/C(C)=C\CC/C(C)=C\CC/C(C)=C\CC/C(C)=C\CC/C(C)=C\COP(=O)(O)O [C55-P],"native mass spectrometry, real-time reaction monitoring",[1]; product formed in situ from C55-PP,only the C55-P product was observed in complex with the protein
"CCCCCCCC/C=C\CCCCCCCC(=O)OC[C@H](COP(=O)(O)O)OC(=O)CCCCCCC/C=C\CCCCCCCC [DGP, 1,2-dioleoylglycerol monophosphate]","native mass spectrometry, real-time reaction monitoring","[3]; product formed in situ from DGPP, ternary complex with DGPP",ternary complex formed by PgpB^Ec with the substrate DGPP and the monophosphorylated product DGP
"CCCCCCCC/C=C\CCCCCCCC(=O)OC[C@H](COP(=O)(O)OP(=O)(O)O)OC(=O)CCCCCCC/C=C\CCCCCCCC [DGPP, 1,2-dioleoylglycerol diphosphate]","native mass spectrometry, real-time reaction monitoring","[3]; 3.5 uM protein, 10 uM DGPP, stoichiometries 1:1 to 1:4, activity independent of divalent cations",DGPP incubated with PgpB^Ec exhibited intense peaks corresponding to the enzyme–substrate and enzyme–product complexes
same,"native mass spectrometry, real-time reaction monitoring",[4]; [5],peaks assigned to enzyme–product complexes with no residual substrate
same,"native mass spectrometry, real-time reaction monitoring",[1]; poorly processed substrate,The resultant spectra are dominated by peaks assigned to the bound substrate.
CCCCCCCC/C=C\CCCCCCCC(=O)OC[C@@H](O)COP(=O)(O)O [LPA],"native mass spectrometry, real-time reaction monitoring","[4]; 3.5 uM protein with 50 uM LPA, 5 uM with 20 uM (Figure 2C)",The resulting spectra exhibited a progressive loss of protein-bound LPA as a function of time
